Laboratory results as given in patent US8354526B2, “Pyrido [4, 3-D] pyrimidinone derivatives as kinase inhibitors” (IRM LLC, priority 2008, dated 2013).
Read-outs that look alike come from different tables or passages of the source.

How the values were obtained:
BaF3/Tel-Syk = target: T1, BaF3/Tel-Syk (Homo sapiens, UniProt P43405); assay: BaF3/Tel-Syk cellular proliferation assay; format: cell-based, murine; conditions: read-out: IC50 in BaF3/Tel-Syk cellular assay
T1 construct: fused on or other part: Dimerization domain of Tel (ETV6), fused to Syk; it is part of the key as ETV6; The host cells also express luciferase, which serves only as the read-out; P41212 (Transcription factor ETV6)
Procedure: (§2) Cells are maintained in RPMI/10% fetal calf serum (RPMI/FCS) supplemented with penicillin 50 μg/mL, streptomycin 50 μg/mL and L-glutamine 200 mM. Untransformed Ba/F3 cells are similarly maintained with the addition of murine recombinant IL3. Cells are dispensed into 384-well format plate at 5000 cell/well in 50 μL of culture medium. Compounds of the invention are dissolved and diluted in dimethylsufoxide (DMSO). Twelve points 1:3 serial dilutions are made into DMSO to create concentrations gradient ranging from 10 mM to 0.05 μM. Cells are added with 50 nL of diluted compounds and incubated for 48 hours in cell culture incubator. Luminiscent signal is measured following the addition of Bright Glo® (Promega) luciferase substrate. IC50 values are calculated by linear regression analysis of the percentage inhibition of each compound at 12 concentrations.

BaF3/Tel-KDR = target: T2, BaF3/Tel-KDR (Homo sapiens, UniProt P35968); assay: BaF3/Tel-KDR cellular proliferation assay; format: cell-based, murine; conditions: read-out: IC50 in BaF3/Tel-KDR cellular assay
T2 construct: fused on or other part: Dimerization domain of Tel (ETV6), fused to KDR; it is part of the key as ETV6; The host cells also express luciferase, which serves only as the read-out; P41212 (Transcription factor ETV6)
Procedure: as §2

Zap70 (kinase domain) = target: T3, Zap70 (kinase domain) (Homo sapiens, UniProt P43403); assay: Inhibition of enzymatic Zap70 kinase activity (HTRF); format: biochemical
T3 construct: Zap70 (kinase domain)
T3 sequence (P43403 338-600 limits assumed): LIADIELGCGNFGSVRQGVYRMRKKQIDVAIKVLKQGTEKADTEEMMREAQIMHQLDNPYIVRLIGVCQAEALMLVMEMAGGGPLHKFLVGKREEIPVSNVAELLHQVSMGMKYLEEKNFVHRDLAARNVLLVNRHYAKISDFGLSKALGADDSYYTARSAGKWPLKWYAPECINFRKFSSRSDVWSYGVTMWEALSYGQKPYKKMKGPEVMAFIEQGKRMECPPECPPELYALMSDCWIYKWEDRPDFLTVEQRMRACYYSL
Procedure: (§1) Purified recombinant hSyk (full length) and Zap70 (kinase domain) diluted in assay buffer are dispensed in 384 well proxi-plates. […] 50 nL of diluted compounds are added to the enzyme solutions and incubated for […] at room temperature, after which ATP and biotynilated peptide substrate are added. Substrate phosphorylation is a function of the HTRF signal measured following the addition of Cisbio-HTRF reagents.

BaF3/Tel-FMS = target: T4, BaF3/Tel-FMS (Homo sapiens, UniProt P07333); assay: BaF3/Tel-FMS cellular proliferation assay; format: cell-based, murine; conditions: read-out: IC50 in BaF3/Tel-FMS cellular assay
T4 construct: fused on or other part: Dimerizing part of Tel (ETV6), fused to FMS; it is part of the key as ETV6; P41212 (Transcription factor ETV6)
T4 sequence (P07333 582-910 limits assumed): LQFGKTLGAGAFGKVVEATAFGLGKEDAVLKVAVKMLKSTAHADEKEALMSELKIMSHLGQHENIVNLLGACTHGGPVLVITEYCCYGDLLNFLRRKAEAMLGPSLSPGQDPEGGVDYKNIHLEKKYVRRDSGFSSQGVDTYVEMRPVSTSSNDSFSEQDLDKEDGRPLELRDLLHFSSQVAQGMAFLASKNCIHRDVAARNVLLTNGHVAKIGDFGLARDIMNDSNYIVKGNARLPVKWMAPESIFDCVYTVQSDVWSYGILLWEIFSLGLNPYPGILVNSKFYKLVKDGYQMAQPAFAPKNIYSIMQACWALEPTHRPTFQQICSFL
Procedure: (§3) Compounds of the invention are tested for their antiproliferative effect on Ba/F3 cells expressing either Tel-TrkA, Tel-TrkB or Tel-TrkC and an additional panel of 34 selected diverse kinases activated by fusion to the dimerizing partners Bcr or Tel (Abl, AlK, BMX, EphA3, EphB2, FGFR2, FGFR3, FGFR4, FGR, FLT1, FLT3, FLT4, FMS, IGF1R, InsR, JAK1, JAK2, JAK3, KDR, Kit, Lck, Lyn, MER, MET, PDGFRb, RET, RON, Ros-1, Src, Syk, TIE2, TYK2, Tie1, ZAP70). The antiproliferative effect of these compounds on the different cell lines and on the non transformed cells were tested at 12 different concentrations of 3-fold serially diluted compounds in 384 well plates as described above (in media lacking IL3). The IC50 values of the compounds the different cell lines were determined from the dose response curves obtained as describe above.

hSyk (full length) = target: T5, hSyk (full length) (Homo sapiens, UniProt P43405); assay: Inhibition of enzymatic Syk kinase activity (HTRF); format: biochemical
T5 construct: Purified recombinant hSyk (full length)
Procedure: as §1

BaF3/Tel-KIT = target: T6, BaF3/Tel-KIT (Homo sapiens, UniProt P10721); assay: BaF3/Tel-KIT cellular proliferation assay; format: cell-based, murine; conditions: read-out: IC50 in BaF3/Tel-KIT cellular assay
T6 construct: fused on or other part: Dimerizing part of Tel (ETV6), fused to c-Kit; P41212 (Transcription factor ETV6)
Procedure: as §3
Compounds were tested for their ability to inhibit the proliferation of wt Ba/F3 cells and Ba/F3 cells transformed with Tel c-Kit fused tyrosine kinases. Untransformed Ba/F3 cells are maintained in media containing recombinant IL3. Cells are plated into 384 well TC plates at 5,000 cells in 50 ul media per well and test compound at 0.06 nM to 10 μM is added. […] After incubating the cells, 25 μL of BRIGHT GLO® (Promega) is added to each well following manufacturer's instructions and the plates are read using Analyst GT—Luminescence mode—50000 integration time in RLU.

[1] = IC50 for Syk inhibition, Table 2, read-out: Syk HTRF

T6 sequence (P10721 589-937 limits assumed, change not shown): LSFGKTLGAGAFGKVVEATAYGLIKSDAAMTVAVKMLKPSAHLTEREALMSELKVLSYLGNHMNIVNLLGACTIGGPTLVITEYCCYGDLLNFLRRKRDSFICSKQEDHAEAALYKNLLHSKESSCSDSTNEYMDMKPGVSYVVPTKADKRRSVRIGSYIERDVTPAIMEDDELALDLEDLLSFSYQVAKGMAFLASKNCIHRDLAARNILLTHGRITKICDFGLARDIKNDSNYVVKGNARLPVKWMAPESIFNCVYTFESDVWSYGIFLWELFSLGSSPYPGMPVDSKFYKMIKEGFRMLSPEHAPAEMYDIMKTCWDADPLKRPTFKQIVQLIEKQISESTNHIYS
T2 sequence (P35968 834-1162 limits assumed, change not shown): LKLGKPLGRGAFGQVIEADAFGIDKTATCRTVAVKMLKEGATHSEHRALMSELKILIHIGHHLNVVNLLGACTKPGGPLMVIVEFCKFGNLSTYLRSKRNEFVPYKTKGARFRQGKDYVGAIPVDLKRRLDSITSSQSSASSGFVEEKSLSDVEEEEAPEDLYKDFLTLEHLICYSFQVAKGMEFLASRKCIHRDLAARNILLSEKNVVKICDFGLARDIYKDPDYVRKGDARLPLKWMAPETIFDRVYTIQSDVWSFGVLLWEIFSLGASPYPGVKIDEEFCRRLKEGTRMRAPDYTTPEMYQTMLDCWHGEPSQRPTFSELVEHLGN

A GI50 (BaF3/Tel-Syk) of 160 nM, a GI50 (BaF3/Tel-KDR) of 1860 nM and an IC50 (Zap70 (kinase domain)) of 38000 nM were found for `O=c1[nH]cnc2cc(-c3ccccc3)nc(Nc3ccc(N4CCOCC4)cc3)c12` [Example 4a, 5-(4-morpholinophenylamino)-7-phenylpyrido[4,3-d]pyrimidin-4(3H)-one] in this work. The GI50 (BaF3/Tel-FMS) was 7 nM, the IC50 (hSyk (full length); read-out: IC50 in Syk enzymatic assay) was 90 nM and the GI50 (BaF3/Tel-KIT) was 30 nM.
An IC50 (hSyk (full length); [1]) of 190 nM was found for `CC(C)Nc1nc(-c2ccc(C(C)(C)O)nc2)cc2ncn(C)c(=O)c12` [Example 6] in this work.
An IC50 (hSyk (full length); [1]) of 5.66 nM was found for `NCCCNc1cc2nc[nH]c(=O)c2c(Nc2ccc(N3CCOCC3)cc2)n1` [Example 13] in this work.
An IC50 (hSyk (full length); [1]) of 61 nM was found for `O=c1[nH]cnc2cc(NCc3ccncc3)nc(Nc3ccc(N4CCOCC4)cc3)c12` [Example 25] in this work.
An IC50 (hSyk (full length); [1]) of 40 nM was found for `COc1ccc(-c2cc3ncn(C)c(=O)c3c(NCc3ccncc3)n2)cc1OC` [Example 114] in this work.
An IC50 (hSyk (full length); [1]) of 126 nM was found for `CNc1cc(CNc2nc(-c3ccc(OC)c(OC)c3)cc3ncn(C)c(=O)c23)ccn1` [Example 183] in this work.
An IC50 (hSyk (full length); [1]) of 258 nM was found for `COc1ccc(-c2cc3ncn(C)c(=O)c3c(NCCc3ccccn3)n2)cc1OC` [Example 189] in this work.
An IC50 (hSyk (full length); [1]) of 104 nM was found for `COc1cc(-c2cc3ncn(C)c(=O)c3c(NCc3ccncc3)n2)ccc1N` [Example 194] in this work.
An IC50 (hSyk (full length); [1]) of 1120 nM was found for `O=c1[nH]cnc2cc(-c3cc(Cl)ccc3Cl)nc(Nc3ccc(N4CCOCC4)cc3)c12` [Example 254] in this work.
An IC50 (hSyk (full length); [1]) of 139 nM was found for `COCCOc1cc(-c2cc3ncn(C)c(=O)c3c(NCC(F)F)n2)ccc1OC` [Example 270] in this work.
An IC50 (hSyk (full length); [1]) of 198 nM was found for `Cn1cnc2cc(-c3ccc4c(c3)NC(=O)C(C)(C)O4)nc(NCC(F)F)c2c1=O` [Example 273] in this work.
An IC50 (hSyk (full length); [1]) of 84.3 nM was found for `Cn1cnc2cc(-c3ccc4c(c3)NC(=O)C4)nc(NCc3ccnc(N)c3)c2c1=O` [Example 278] in this work.
An IC50 (hSyk (full length); [1]) of 823 nM was found for `O=c1[nH]cnc2cc(N3CCS(=O)(=O)CC3)nc(Nc3ccc(N4CCOCC4)nc3)c12` [Example 305] in this work.
An IC50 (hSyk (full length); [1]) of 42.7 nM was found for `CN1CCC(c2ccc(Nc3nc(N4CCC(N5CCCCC5)CC4)cc4nc[nH]c(=O)c34)cc2)CC1` [Example 313] in this work.
An IC50 (hSyk (full length); [1]) of 126 nM was found for `CC(C)Nc1nc(-c2cnn(C)c2)cc2ncn(C)c(=O)c12` [Example 317] in this work.
An IC50 (hSyk (full length); [1]) of 340 nM was found for `CC(C)Nc1nc(-c2cnc3[nH]ccc3c2)cc2ncn(C)c(=O)c12` [Example 324] in this work.
An IC50 (hSyk (full length); [1]) of 375 nM was found for `Cn1cnc2cc(-c3cccc(S(C)(=O)=O)c3)nc(NC3CC3)c2c1=O` [Example 349] in this work.
An IC50 (hSyk (full length); [1]) of 376 nM was found for `CNc1nc(-c2ccc(C(C)(C)O)nc2)cc2ncn(C)c(=O)c12` [Example 352] in this work.
An IC50 (hSyk (full length); [1]) of 113 nM was found for `COc1cc(-c2cc3ncn(C)c(=O)c3c(NCC(F)F)n2)ccc1OCCCN1CCOCC1` [Example 366] in this work.
An IC50 (hSyk (full length); [1]) of 114 nM was found for `COc1cc(-c2cc3ncn(C)c(=O)c3c(NC[C@H](C)O)n2)ccc1OCCCN1CCOCC1` [Example 372] in this work.
An IC50 (hSyk (full length); [1]) of 131 nM was found for `CNS(=O)(=O)c1cc(-c2cc3ncn(C)c(=O)c3c(NC3CCC3)n2)ccc1OC` [Example 415] in this work.
An IC50 (hSyk (full length); [1]) of 531 nM was found for `COc1ccc(-c2cc3ncn(C)c(=O)c3c(Nc3ccc4cn[nH]c4c3)n2)cc1OC` [Example 418] in this work.
